In patent US20120142676A1, “Oxathiazine and dithiine oxides as inhibitors of sulfhydryl-dependent biomolecules” (priority 2010, published 2012):
pIC50: −log10 of the molar value. Like-named read-outs stand apart in the source and are kept apart here.

Assays:
[1] = system: human leukemia K562 cells; assay: K562 cell growth inhibition assay (MTS); format: cell-based; conditions: 72 h incubation, read-out: Median growth inhibitory concentration (IC50) of K562 cells
Procedure: K562 cells were obtained from American Type Culture Collection (Rockville, Md.). These cells were maintained as suspension cultures in alpha minimum essential medium (αMEM) (Gibco BRL, Burlington, Canada) containing 2 mM L-glutamine and supplemented with 10% fetal calf serum (Invitrogen, Burlington, ON, Canada), 20 mM NaHCO3, 20 mM HEPES (Sigma), 100 units/ml penicillin G, and 100 μg/ml streptomycin at pH 7.4 in an atmosphere of 5% CO2 and 95% air at 37° C. For the measurement of growth inhibition, cells in exponential growth were harvested and seeded at 6000 cells/well in 96-well plates (100 μl/well). Drugs were dissolved in DMSO and added to the wells such that the final concentration of DMSO was 0.5% (v/v). After 72 h incubation, 7 μl of 3-(4,5-dimethylthiazol-2-yl)-5-(3-carboxymethoxyphenyl)-2-(4-sulfophenyl)-2H-tetrazolium (MTS) Cell Titer 96® AQueous One Solution (Promega, Md., WI) was added to each well and incubated for a further 3 h. The absorbance was measured in a Molecular Devices (Menlo Park, Calif.) plate reader. The spectrophotometric 96-well plate cell growth inhibition assay measures the ability of the cells to enzymatically reduce MTS. Three replicates were measured at each drug concentration, and the IC50 values and their SEs for growth inhibition were obtained by fitting the absorbance-drug concentration data to a four-parameter logistic equation.

human topoisomerase IIα = biological target: T1, human topoisomerase IIα (Homo sapiens, UniProt P11388); assay: Topoisomerase IIα decatenation inhibition assay; format: biochemical; conditions: K562 cells nuclear extract, kDNA decatenation; for inhibition at 30 µM / inhibition at 3 µM: read-out: % Inhibition of topoisomerase II catalytic activity
T1 construct: 300 ng K562 cells nuclear extract, the amount that gave 80% decatenation; endogenous in cells; host or cells: K562 cells nuclear extract
T1 sequence (P11388 whole entry): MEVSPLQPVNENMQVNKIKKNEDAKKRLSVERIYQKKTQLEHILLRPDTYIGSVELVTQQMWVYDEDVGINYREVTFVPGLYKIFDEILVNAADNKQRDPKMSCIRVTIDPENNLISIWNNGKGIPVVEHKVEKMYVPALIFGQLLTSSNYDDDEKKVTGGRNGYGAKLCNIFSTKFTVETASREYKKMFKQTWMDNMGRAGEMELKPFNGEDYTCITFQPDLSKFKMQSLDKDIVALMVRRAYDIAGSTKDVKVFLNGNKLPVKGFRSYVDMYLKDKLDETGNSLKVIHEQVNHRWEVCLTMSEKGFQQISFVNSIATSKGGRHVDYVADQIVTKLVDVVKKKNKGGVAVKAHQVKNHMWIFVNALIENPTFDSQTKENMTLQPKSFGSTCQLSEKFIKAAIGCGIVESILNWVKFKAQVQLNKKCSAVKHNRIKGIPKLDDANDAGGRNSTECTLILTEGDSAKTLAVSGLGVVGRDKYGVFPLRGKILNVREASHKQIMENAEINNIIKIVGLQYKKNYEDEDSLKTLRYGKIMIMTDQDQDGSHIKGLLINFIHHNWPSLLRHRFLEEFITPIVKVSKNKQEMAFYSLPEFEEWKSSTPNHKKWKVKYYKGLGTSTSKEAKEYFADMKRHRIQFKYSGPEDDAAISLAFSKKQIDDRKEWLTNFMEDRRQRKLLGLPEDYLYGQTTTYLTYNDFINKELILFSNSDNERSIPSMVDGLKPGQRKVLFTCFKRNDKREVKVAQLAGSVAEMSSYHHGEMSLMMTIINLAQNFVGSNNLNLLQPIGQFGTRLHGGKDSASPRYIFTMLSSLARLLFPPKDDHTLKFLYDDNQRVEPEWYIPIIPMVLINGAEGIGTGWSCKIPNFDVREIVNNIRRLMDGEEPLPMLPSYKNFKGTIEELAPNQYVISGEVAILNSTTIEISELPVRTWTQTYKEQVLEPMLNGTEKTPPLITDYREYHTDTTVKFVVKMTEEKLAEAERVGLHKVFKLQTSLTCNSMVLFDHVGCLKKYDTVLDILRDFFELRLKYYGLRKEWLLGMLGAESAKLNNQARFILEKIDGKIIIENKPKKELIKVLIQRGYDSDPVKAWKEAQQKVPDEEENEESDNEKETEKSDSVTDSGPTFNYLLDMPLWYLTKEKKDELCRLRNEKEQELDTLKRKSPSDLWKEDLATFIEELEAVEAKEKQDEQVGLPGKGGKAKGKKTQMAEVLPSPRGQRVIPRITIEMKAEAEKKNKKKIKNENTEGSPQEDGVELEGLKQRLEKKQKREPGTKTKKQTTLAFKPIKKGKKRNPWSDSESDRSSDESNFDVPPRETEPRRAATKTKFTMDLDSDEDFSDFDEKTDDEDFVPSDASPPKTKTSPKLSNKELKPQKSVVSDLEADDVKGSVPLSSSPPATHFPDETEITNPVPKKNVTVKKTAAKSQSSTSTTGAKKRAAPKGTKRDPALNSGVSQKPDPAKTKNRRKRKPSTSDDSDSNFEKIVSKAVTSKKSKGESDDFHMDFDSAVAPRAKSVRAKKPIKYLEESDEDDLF
Procedure: The catalytic inhibition of human topoisomerase IIα by a drug was measured by the ATP-dependent decatenation of kDNA (Topogen, Columbus, Ohio) into minicircles of DNA as we previously described (Hasinoff 1995 QSAR ICRF-187). The 20 μl reaction mixture contained 0.5 mM ATP, 50 mM Tris-HCl (pH 8.0), 120 mM KCl, 10 mM MgCl2, 30 μg/ml bovine serum albumin, 40 ng kDNA, drug or DMSO (0.5 μl) and 300 ng K562 cells nuclear extract, the amount that gave 80% decatenation. The enzymatic reaction was carried out at 37° C. and was terminated by the addition of 6 μl of buffer containing 5 mM Tris pH 8.0, 30% w/v sucrose, 0.5% bromophenol blue, and 125 mM EDTA. The resulting mixture was separated by electrophoresis (2 h at 8 V/cm) on an agarose gel prepared from 1.2% w/v agarose and 0.5 μg/ml ethidium bromide in TAE buffer pH 8.0 (40 mM Tris base, 0.114% (v/v) glacial acetic acid, 2 mM EDTA). The DNA in the gel was imaged by its fluorescence on an Alpha Annotech Fluorchem 8900 imaging system equipped with a 365 nm illuminator and a CCD camera. Densitometry scanning of gel photographs was used to obtain the fluorescence intensity of the band corresponding to the DNA minicircles. The percentage inhibition of K562 topoisomerase II catalytic activity at concentrations of 3 and 30 μM was determined using the following equation: % Inhibition=[(1−(Bdrug−Bbackground)/Bdmso]×100, where Bdrug is the band intensity value for the enzymatic reaction sample treated with drug, Bbackground is the band intensity value for sample without the enzyme, and Bdmso is the band intensity value for the enzymatic reaction sample treated with DMSO solvent only.

| SMILES | pIC50 [1] | % Inhibition of topoisomerase II catalytic activity (human topoisomerase IIα; 3 μM) [%] | % Inhibition of topoisomerase II catalytic activity (human topoisomerase IIα; 30 μM) [%] | melting point [°C] | inhibition at 30 µM (human topoisomerase IIα; 30 μM) [%] | pIC50 ([1]; Homo sapiens, K562, 72 h) | inhibition at 3 µM (human topoisomerase IIα; 3 μM) [%] |
| --- | --- | --- | --- | --- | --- | --- | --- |
| O=S1(=O)CCON=C1C1=Cc2ccccc2S1(=O)=O [compound 15] | 6.30 | 100 | 100 | – | – | – | – |
| CCOC(=O)C1=C(C(=O)OCC)S(=O)(=O)CCS1(=O)=O [compound 20, 2,3-diethyl 1,1,4,4-tetraoxo-5,6-dihydro-1λ^6,4λ^6-dithiine-2,3-dicarboxylate] | 6.00 | – | – | 154 to 156 | 100 | – | – |
| O=S1(=O)CCON=C1c1cc2ccccc2s1 [compound 10] | 6.30 | 100 | 100 | – | – | – | – |
| Cc1ccc2sc(C3=NOCC[S+]3[O-])c(C)c2c1 (stereo not shown) [compound 12] | 6.15 | 100 | 100 | – | – | – | – |
| O=C(Nc1ccccc1)C1=NOCC[S+]1[O-] (stereo not shown) [compound 3, 4-oxo-5,6-dihydro-N-phenyl-1,4λ^4,2-oxathiazine-3-carboxamide] | – | – | – | 150 to 154 | 100 | 6.00 | 100 |
| CC1=C(COc2ccccc2)S(=O)(=O)CCS1(=O)=O [compound 21, 2-methyl-3-(phenoxymethyl)-5,6-dihydro-1λ^6,4λ^6-dithiine-1,1,4,4-tetrone] | – | – | – | – | 100 | 6.22 | 100 |
| [O-][S+]1CCON=C1c1sc2ccccc2c1Br (stereo not shown) [compound 13, 3-(3-bromo-1-benzothiophen-2-yl)-5,6-dihydro-1,4λ^4,2-oxathiazin-4-one] | – | – | – | – | 100 | 6.00 | 100 |
| O=C(Nc1ccccc1)C1=NOCCS1(=O)=O [compound 4, 4,4-dioxo-N-phenyl-5,6-dihydro-1, 4λ^6,2-oxathiazine-3-carboxamide] | – | – | – | 206 to 207 | 100 | 6.15 | 100 |
| CCOC(=O)C1=C(C(F)(F)F)S(=O)(=O)CCS1(=O)=O [compound 24, ethyl 1,1,4,4-tetraoxo-3-(trifluoromethyl)-5,6-dihydro-1λ^6,4λ^6-dithiine-2-carboxylate] | – | – | – | 142 to 145 | 100 | 5.60 | 100 |
| CCOC(=O)C1=C(c2ccccc2)S(=O)(=O)CCS1(=O)=O [compound 17, ethyl 1,1,4,4-tetraoxo-3-phenyl-5,6-dihydro-1λ^6,4λ^6-dithiine-2carboxylate] | – | – | – | 190 to 191 | 100 | 5.52 | 100 |
| O=C(Nc1ccccc1)C1=C(C(F)(F)F)S(=O)(=O)CCS1(=O)=O [compound 25, 1,1,4,4-tetraoxo-N-phenyl-3-(trifluoromethyl)-5,6-dihydro-1λ^6,4λ^6-dithiine-2-carboxamide] | – | – | – | 217 to 219 | 100 | 5.40 | 100 |
| CCC1CS(=O)(=O)C(c2ccccc2)=C(c2ccccc2)S1(=O)=O (stereo not shown) [compound 16] | 5.40 | 80 | 100 | – | – | – | – |
| CCOC(=O)c1ccc(C2=NOCC[S+]2[O-])s1 (stereo not shown) [compound 7] | 6.05 | 100 | 100 | – | – | – | – |
| CCCCC1=C(c2ccccc2)S(=O)(=O)CCS1(=O)=O [compound 18] | 5.30 | 70 | 100 | – | – | – | – |
| CC1=C(CS(=O)(=O)c2ccccc2)S(=O)(=O)CCS1(=O)=O [compound 22] | 6.00 | 100 | 100 | – | – | – | – |
| [O-][S+]1CCON=C1c1nnc(-c2cccc(Cl)c2)o1 (stereo not shown) [compound 8, 3-[5-(3-chlorophenyl)-1,3,4-oxadiazol-2-yl]-5,6-dihydro-1,4λ^4,2-oxathiazin-4-one] | – | – | – | 208 to 210 | 100 | 5.40 | 80 |
| CCOC(=O)C1=C(C(=O)OCC)S(=O)(=O)CCS1(=O)=O [compound 1] | 4.96 | 70 | 100 | 68 to 70 | – | – | – |
| COCC1=C(COC)S(=O)(=O)CCS1(=O)=O [compound 23] | 5.64 | 100 | 100 | – | – | – | – |
| CC1=C(COc2ccccc2)S(=O)(=O)CCS1(=O)=O [compound 2] | 6.00 | 100 | 100 | – | – | – | – |
| [O-][S+]1CCON=C1c1cc2ccccc2[s+]1[O-] (stereo not shown) [compound 14] | 6.00 | 100 | 100 | – | – | – | – |
| CC1C(C)S(=O)(=O)C(c2ccccc2)=CS1(=O)=O (stereo not shown) [compound 19] | 5.40 | 100 | 100 | – | – | – | – |
| CC1C[S+]([O-])C(c2cc3ccccc3s2)=NO1 (stereo not shown) [compound 11] | 5.70 | 100 | 100 | – | – | – | – |
